# Measurements as given in patent publication US20250222145A1, “TRACER COMPOSITION FOR RADIOACTIVE PET DIAGNOSIS, INTERMEDIATE THEREOF, AND PRODUCTION METHOD THEREOF” (OSAKA UNIVERSITY, priority 2021, published 2025).
# Columns and labels:
# [1] = radiochemical purity over time after production; format: physicochemical; conditions: after 5 hours of production, FIG. 1
# From the text: A result of measuring radiochemical purity of the obtained compound 3 is illustrated in FIG. 1.
# brain tumor (C6 glioma) [2] = assay: PET imaging of tumor accumulation in C6 glioma model mouse; format: in vivo
# Description: (§1) ^18F-FAMT-OMe synthesized in the Example 1 was administered to a model mouse of brain tumor (C6 glioma), and accumulation properties thereof were observed Specifically, a solution containing about 10 MBq of ^18F-FAMT-OMe was intravenously injected into the mouse, and PET images were acquired at regular intervals.
# [3] = changes over time in accumulation in the kidney (SUV, PET); format: in vivo, mouse; conditions: FIG. 3, SUV based on the radiation dose of blood
# Description: as §1
# In addition, FIG. 3 (left drawing) illustrates a result of measuring changes over time in the accumulation of the ^18F-FAMT-OMe in the kidney on the basis of a standardized uptake value (SUV) value based on the radiation dose of blood. As a comparative example, a result of a case using the ^18F-FAMT is illustrated in FIG. 3 (right drawing). In addition, FIG. 4 is a graph comparing the maximum value of SUV (SUVmax) with the existing tracer compounds ^18F-FBPA and ^18F-FAMT.
# brain tumor (C6 glioma) [4] = assay: distribution (% ID/g) in the mouse body; format: in vivo; conditions: FIG. 5; except kidney and pancreas
# From the text: Further, FIG. 5 is a graph representing a distribution (% ID/g) of the ^18F-FAMT-OMe of the present invention in the mouse body.
compound,measurement,setting,value
COc1ccc(CC(C)(N)C(=O)O)cc1[18F] (stereo not drawn) [Compound 3],stability of radiochemical purity,[1],purity was maintained even after 5 hours
same,accumulation at a tumor site (PET images),"brain tumor (C6 glioma) [2]; about 10 MBq intravenously, model mouse of brain tumor (C6 glioma), FIG. 2",clear and high accumulation at a tumor site
same,washing out from tumor site,"brain tumor (C6 glioma) [2]; in comparison with conventional ^18F-FAMT, FIG. 2",washing out was significantly gentle
same,accumulation one hour after administration,"brain tumor (C6 glioma) [2]; one hour after administration, versus conventional ^18F-FAMT",better than that of the conventional ^18F-FAMT
same,accumulation in the kidney over time (SUV),[3],excreted from the kidney over time
same,distribution (% ID/g): tumor versus normal organs and blood,brain tumor (C6 glioma) [4],significantly higher accumulation at a tumor site
